In brackets after ≈: the same amount, converted by molar mass.
Legend:
[1] = system: P. aeruginosa (ΔmexAB-oprM); assay: Broth microdilution MIC in iron-depleted CAMHB (IDM); format: cell-based; details: Pseudomonas aeruginosa; iron-depleted CAMHB (IDM); […]; read-out: Minimum inhibitory concentration, P. aeruginosa ΔmexAB-oprM
P. aeruginosa ATCC 35151 = assay: microbe, parasite or virus in culture; format: cell-based; details: Pseudomonas aeruginosa, ATCC35151, read-out: Minimum inhibitory concentration, P. aeruginosa ATCC 35151
A. baumannii CDC-0083 = assay: microbe, parasite or virus in culture; format: cell-based; details: Acinetobacter baumannii, CDC0083, read-out: MIC, A. baumannii CDC-0083
A. baumannii CDC-0045 = assay: microbe, parasite or virus in culture; format: cell-based; details: Acinetobacter baumannii, CDC0045, read-out: MIC, A. baumannii CDC-0045
P. aeruginosa CDC-0054 = assay: microbe, parasite or virus in culture; format: cell-based; details: Pseudomonas aeruginosa, CDC0054, read-out: Minimum inhibitory concentration, P. aeruginosa CDC-0054
A. baumannii CDC-0033 = assay: microbe, parasite or virus in culture; format: cell-based; details: Acinetobacter baumannii, CDC0033, read-out: MIC, A. baumannii CDC-0033
[2] = system: B. thailandensis ATCC 700388; assay: microbe, parasite or virus in culture; format: cell-based; details: Burkholderia thailandensis, ATCC700388, read-out: Minimum inhibitory concentration (MIC), B. thailandensis ATCC 700388
[3] = system: B. humptydooensis ATCC BAA-2767; assay: microbe, parasite or virus in culture; format: cell-based; details: Burkholderia humptydooensis, ATCCBAA2767, read-out: Minimum inhibitory concentration (MIC), B. humptydooensis ATCC BAA-2767
A. baumannii ATCC 19606 = assay: microbe, parasite or virus in culture; format: cell-based; details: Acinetobacter baumannii, ATCC19606, read-out: MIC, A. baumannii ATCC 19606
A. baumannii 1258916 = assay: microbe, parasite or virus in culture; format: cell-based, Acinetobacter baumannii; details: Acinetobacter baumannii, 1258916, read-out: MIC, A. baumannii 1258916
A. baumannii PBP2 = A. baumannii PBP2 (Acinetobacter baumannii, UniProt D0C8Z9); assay: Bocillin-FL competition binding via gel filtration, A. baumannii PBP2
A. baumannii PBP2, sequence (D0C8Z9 whole entry): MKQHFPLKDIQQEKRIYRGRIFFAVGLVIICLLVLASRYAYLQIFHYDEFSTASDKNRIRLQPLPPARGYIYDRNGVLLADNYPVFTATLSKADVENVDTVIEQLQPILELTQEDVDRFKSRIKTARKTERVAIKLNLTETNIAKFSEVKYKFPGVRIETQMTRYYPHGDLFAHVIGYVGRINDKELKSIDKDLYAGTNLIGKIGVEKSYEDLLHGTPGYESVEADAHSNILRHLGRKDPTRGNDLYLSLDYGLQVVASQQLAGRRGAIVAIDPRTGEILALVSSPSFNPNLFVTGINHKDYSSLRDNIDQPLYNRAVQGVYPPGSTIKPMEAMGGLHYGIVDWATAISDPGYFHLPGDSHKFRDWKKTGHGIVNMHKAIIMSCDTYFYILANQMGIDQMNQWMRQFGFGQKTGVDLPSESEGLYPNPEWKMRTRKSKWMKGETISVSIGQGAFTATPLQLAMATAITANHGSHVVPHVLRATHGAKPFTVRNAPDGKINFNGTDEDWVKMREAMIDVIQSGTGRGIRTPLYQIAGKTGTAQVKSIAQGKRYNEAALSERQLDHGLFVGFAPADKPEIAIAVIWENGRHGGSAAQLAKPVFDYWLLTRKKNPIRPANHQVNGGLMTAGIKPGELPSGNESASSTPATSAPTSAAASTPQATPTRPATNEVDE
Method in brief: (§1)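 Competitive equilibrium binding; reporter Bocillin-FL. PBP + inhibitor (titration) pre-incubated → Bocillin-FL, 15 min → gel filtration → fluorescence. EC50 from Hill fit of fraction bound vs [inhibitor].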

A. baumannii ATCC 17978 = assay: microbe, parasite or virus in culture; format: cell-based; details: Acinetobacter baumannii, ATCC17978, read-out: MIC, A. baumannii ATCC 17978
P. aeruginosa CDC-0095 = assay: microbe, parasite or virus in culture; format: cell-based; details: Pseudomonas aeruginosa, CDC0095, read-out: Minimum inhibitory concentration, P. aeruginosa CDC-0095
P. aeruginosa CDC-0110 = assay: microbe, parasite or virus in culture; format: cell-based; details: Pseudomonas aeruginosa, CDC0110, read-out: Minimum inhibitory concentration, P. aeruginosa CDC-0110
A. baumannii PBP1a = target: T1, A. baumannii PBP1a (Acinetobacter baumannii, UniProt A0ABX6CK30); assay: Bocillin-FL competition binding via gel filtration, A. baumannii PBP1a; details: competition binding assay using Bocillin-FL via gel filtration; read-out: A. baumannii PBP1a Potency
T1 sequence (A0ABX6CK30 1-851): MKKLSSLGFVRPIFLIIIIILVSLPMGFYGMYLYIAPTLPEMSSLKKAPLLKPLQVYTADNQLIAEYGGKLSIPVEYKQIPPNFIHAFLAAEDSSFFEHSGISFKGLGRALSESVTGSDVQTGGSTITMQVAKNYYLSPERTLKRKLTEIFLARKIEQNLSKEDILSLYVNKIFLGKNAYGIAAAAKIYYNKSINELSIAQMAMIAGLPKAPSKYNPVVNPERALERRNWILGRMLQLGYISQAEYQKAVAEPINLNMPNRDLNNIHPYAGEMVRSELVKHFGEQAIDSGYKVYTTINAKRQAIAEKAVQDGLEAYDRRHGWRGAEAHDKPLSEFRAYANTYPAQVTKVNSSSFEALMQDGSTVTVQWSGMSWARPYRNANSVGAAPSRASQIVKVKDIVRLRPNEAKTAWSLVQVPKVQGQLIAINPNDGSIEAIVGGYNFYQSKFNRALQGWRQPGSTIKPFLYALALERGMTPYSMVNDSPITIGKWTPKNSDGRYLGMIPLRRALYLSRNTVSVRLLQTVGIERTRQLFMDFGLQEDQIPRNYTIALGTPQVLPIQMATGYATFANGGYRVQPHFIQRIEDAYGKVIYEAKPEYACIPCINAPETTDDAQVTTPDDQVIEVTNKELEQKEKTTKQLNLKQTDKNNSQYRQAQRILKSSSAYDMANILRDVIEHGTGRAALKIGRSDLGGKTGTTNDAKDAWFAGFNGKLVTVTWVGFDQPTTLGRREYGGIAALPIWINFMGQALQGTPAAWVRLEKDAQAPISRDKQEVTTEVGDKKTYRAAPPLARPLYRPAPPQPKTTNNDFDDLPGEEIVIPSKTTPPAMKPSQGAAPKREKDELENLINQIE
Method in brief: as §1

P. aeruginosa CDC-0090 = assay: microbe, parasite or virus in culture; format: cell-based; details: Pseudomonas aeruginosa, CDC0090, read-out: Minimum inhibitory concentration, P. aeruginosa CDC-0090

Work on `O=C(NCCCN1CCN(C(=O)NC(C(=O)N[C@H]2Cc3ccc(F)c(C(=O)O)c3OB2O)c2cc(F)c(O)c(O)c2Cl)C(=O)C1=O)c1c(F)cncc1Cl` (stereo partly drawn) [Example 403, (3R)-3-(2-(2-chloro-5-fluoro-3,4-dihydroxyphenyl)-2-(4-(3-(3-chloro-5-fluoroisonicotinamido)propyl)-2,3-dioxopiperazine-1-carboxamido)acetamido)-7-fluoro-2-hydroxy-3,4-dihydro-2H-benzo[e][1,2]oxaborinine-8-carboxylic acid] yielded an MIC [1] of less than 1 µg/mL, an MIC (P. aeruginosa ATCC 35151) of less than 1 µg/mL and an MIC (A. baumannii CDC-0083) of 2 to 4 µg/mL (≈ 2.51 to 5.02 µM). The MIC (A. baumannii CDC-0045) was less than 1 µg/mL, the MIC (P. aeruginosa CDC-0054) was less than 1 µg/mL and the MIC (A. baumannii CDC-0033) was 2 to 4 µg/mL (≈ 2.51 to 5.02 µM). For the same compound, the MIC [2] was 2 to 4 µg/mL (≈ 2.51 to 5.02 µM), the MIC [3] was 2 to 4 µg/mL (≈ 2.51 to 5.02 µM) and the MIC (A. baumannii ATCC 19606) was less than 1 µg/mL. It also gave an MIC (A. baumannii 1258916) of 2 to 4 µg/mL (≈ 2.51 to 5.02 µM), an EC50 (A. baumannii PBP2) of 10 to 50 µM and an MIC (A. baumannii ATCC 17978) of less than 1 µg/mL. The MIC (P. aeruginosa CDC-0095) was 2 to 4 µg/mL (≈ 2.51 to 5.02 µM), the MIC (P. aeruginosa CDC-0110) was less than 1 µg/mL and the EC50 (A. baumannii PBP1a) was 10 to 50 µM. It also gave an MIC (P. aeruginosa CDC-0090) of 2 to 4 µg/mL (≈ 2.51 to 5.02 µM).
`O=C(NCCCN1CCN(C(=O)NC(C(=O)N[C@H]2Cc3ccc(F)c(C(=O)O)c3OB2O)c2cc(F)c(O)c(O)c2Cl)C(=O)C1=O)c1ccc(O)cc1O` (stereo partly drawn) [Example 307, (3R)-3-(2-(2-chloro-5-fluoro-3,4-dihydroxyphenyl)-2-(4-(3-(2,4-dihydroxybenzamido)propyl)-2,3-dioxopiperazine-1-carboxamido)acetamido)-7-fluoro-2-hydroxy-3,4-dihydro-2H-benzo[e][1,2]oxaborinine-8-carboxylic acid] showed an MIC [1] of less than 1 µg/mL, an MIC (P. aeruginosa ATCC 35151) of less than 1 µg/mL and an MIC (A. baumannii CDC-0083) of less than 1 µg/mL. For the same compound, the MIC (A. baumannii CDC-0045) was less than 1 µg/mL, the MIC (P. aeruginosa CDC-0054) was 2 to 4 µg/mL (≈ 2.58 to 5.16 µM) and the MIC (A. baumannii CDC-0033) was 2 to 4 µg/mL (≈ 2.58 to 5.16 µM). The MIC [2] was 8 to 16 µg/mL (≈ 10.3 to 20.6 µM), the MIC [3] was 8 to 16 µg/mL (≈ 10.3 to 20.6 µM) and the MIC (A. baumannii ATCC 19606) was less than 1 µg/mL. The MIC (A. baumannii 1258916) was less than 1 µg/mL, the EC50 (A. baumannii PBP2) was less than 10 µM and the MIC (A. baumannii ATCC 17978) was less than 1 µg/mL. It also gave an MIC (P. aeruginosa CDC-0095) of less than 1 µg/mL, an MIC (P. aeruginosa CDC-0110) of less than 1 µg/mL and an EC50 (A. baumannii PBP1a) of less than 10 µM. The MIC (P. aeruginosa CDC-0090) was less than 1 µg/mL.
Work on `O=C(NCCCN1CCN(C(=O)NC(C(=O)N[C@H]2Cc3ccc(F)c(C(=O)O)c3OB2O)c2cc(F)c(O)c(O)c2Cl)C(=O)C1=O)c1cc(F)c(F)c(O)c1F` (stereo partly drawn) [Example 404, (3R)-3-(2-(2-chloro-5-fluoro-3,4-dihydroxyphenyl)-2-(2,3-dioxo-4-(3-(2,4,5-trifluoro-3-hydroxybenzamido)propyl)piperazine-1-carboxamido)acetamido)-7-fluoro-2-hydroxy-3,4-dihydro-2H-benzo[e][1,2]oxaborinine-8-carboxylic acid] yielded an MIC [1] of less than 1 µg/mL, an MIC (P. aeruginosa ATCC 35151) of less than 1 µg/mL and an MIC (A. baumannii CDC-0083) greater than 128 µg/mL. For the same compound, the MIC (A. baumannii CDC-0045) was less than 1 µg/mL, the MIC (P. aeruginosa CDC-0054) was less than 1 µg/mL and the MIC (A. baumannii CDC-0033) was 2 to 4 µg/mL (≈ 2.46 to 4.91 µM). For the same compound, the MIC [2] was 2 to 4 µg/mL (≈ 2.46 to 4.91 µM), the MIC [3] was greater than 128 µg/mL and the MIC (A. baumannii ATCC 19606) was less than 1 µg/mL. For the same compound, the MIC (A. baumannii 1258916) was 2 to 4 µg/mL (≈ 2.46 to 4.91 µM), the EC50 (A. baumannii PBP2) was less than 10 µM and the MIC (A. baumannii ATCC 17978) was less than 1 µg/mL. The MIC (P. aeruginosa CDC-0095) was 2 to 4 µg/mL (≈ 2.46 to 4.91 µM), the MIC (P. aeruginosa CDC-0110) was less than 1 µg/mL and the EC50 (A. baumannii PBP1a) was less than 10 µM. For the same compound, the MIC (P. aeruginosa CDC-0090) was 2 to 4 µg/mL (≈ 2.46 to 4.91 µM).
`O=C(NCCCN1CCN(C(=O)NC(C(=O)N[C@H]2Cc3ccc(F)c(C(=O)O)c3OB2O)c2cc(F)c(O)c(O)c2Cl)C(=O)C1=O)c1c(F)cc(O)cc1Cl` (stereo partly drawn) [Example 421, (3R)-3-(2-(2-chloro-5-fluoro-3,4-dihydroxyphenyl)-2-(4-(3-(2-chloro-6-fluoro-4-hydroxybenzamido)propyl)-2,3-dioxopiperazine-1-carboxamido)acetamido)-7-fluoro-2-hydroxy-3,4-dihydro-2H-benzo[e][1,2]oxaborinine-8-carboxylic acid] was tested, and the MIC [1] was less than 1 µg/mL, the MIC (P. aeruginosa ATCC 35151) was less than 1 µg/mL and the MIC (A. baumannii CDC-0083) was greater than 128 µg/mL. The MIC (A. baumannii CDC-0045) was less than 1 µg/mL, the MIC (P. aeruginosa CDC-0054) was less than 1 µg/mL and the MIC (A. baumannii CDC-0033) was 2 to 4 µg/mL (≈ 2.46 to 4.92 µM). The MIC [2] was 2 to 4 µg/mL (≈ 2.46 to 4.92 µM), the MIC [3] was 2 to 4 µg/mL (≈ 2.46 to 4.92 µM) and the MIC (A. baumannii ATCC 19606) was less than 1 µg/mL. It also gave an MIC (A. baumannii 1258916) of 2 to 4 µg/mL (≈ 2.46 to 4.92 µM), an EC50 (A. baumannii PBP2) of less than 10 µM and an MIC (A. baumannii ATCC 17978) of less than 1 µg/mL. The MIC (P. aeruginosa CDC-0095) was 2 to 4 µg/mL (≈ 2.46 to 4.92 µM), the MIC (P. aeruginosa CDC-0110) was less than 1 µg/mL and the EC50 (A. baumannii PBP1a) was less than 10 µM. The MIC (P. aeruginosa CDC-0090) was less than 1 µg/mL.
